These results are taken from PMC6396024, “Artemin and an Artemin-Derived Peptide, Artefin, Induce Neuronal Survival, and Differentiation Through Ret and NCAM” (Frontiers in Molecular Neuroscience, 2019).

The test system of experiment [1] is cerebellar granule neurons (CGNs). In words: Survival assay of CGNs induced to undergo apoptosis by potassium withdrawal. In kind it is cell-based, Wistar rat. Conditions: for neuronal survival in apoptotic medium: 48 h, 5 mM KCl, serially diluted ARTN or artefin, paired t-test; for maximal neuroprotective effect / maximum level of neuronal survival: control 40 mM KCl = 100%, mean of five experiments. The protocol: Cerebellar granule neurons (CGNs) were prepared from 7-day-old Wistar rat pups (Charles River Laboratories, Sulzfeld, Germany) as previously described ([Schousboe et al., 1989]). Briefly, pups were decapitated, and the cerebellum was removed and cleared from blood vessels and meninges in ice-cold modified Krebs-Ringer buffer. The cerebellum was dissociated by chopping and trypsinization. Cells were washed in Krebs-Ringer buffer containing DNAse I (Sigma, St. Louis, MO, United States) and soybean trypsin inhibitor (Sigma) to stop trypsinization, and the remaining tissue pieces were pelleted by centrifugation. Cells were then washed in Krebs-Ringer buffer containing Ca^2+ and Mg^2+ and re-suspended in appropriate Neurobasal^TM medium (Invitrogen, Taastrup, Denmark) with supplements depending on the experiment.
Cerebellar granule neurons were re-suspended in Neurobasal^TM-A medium supplemented with 2% (v/v) B27 (Invitrogen, Taastrup, Denmark), 0.5% (v/v) glutamax, 100 U/ml penicillin, 100 μg/ml streptomycin, and 40 mM KCl, and seeded at a density of 1 × 10^5 cells/well in 8-well LabTek Permanox chamber slides (Nunc, Roskilde, Denmark) coated with poly-L-lysine (10 μg/ml). To avoid proliferation of non-neuronal cells, cytosine-β-D-arabinofuranoside (Sigma) was added to cells 24 h after plating. CGNs were allowed to differentiate for 7 days in vitro (DIV) in the presence of 40 mM KCl before being induced to undergo apoptosis by changing the medium to one containing only 5 mM KCl (apoptotic medium) ([D’Mello et al., 1993]). At 7 DIV, cells were washed and stimulated with serially diluted ARTN or artefin diluted in the apoptotic medium. Three different controls were included; (1) cells grown in medium containing 40 mM KCl served as a positive control; (2) cells grown in medium containing 5 mM KCl served as a negative control; (3) cells grown in medium containing 5 mM KCl supplemented with 50 ng/ml insulin growth factor-1 (IGF-1) (Life Technology), a known anti-apoptotic factor for CGNs in this setup ([Galli et al., 1995]). After 48 h following the induction of apoptosis, cells were fixated in 4% formaldehyde for 30 min, and nuclear morphology was visualized with Hoechst 33258 staining (Invitrogen, Taastrup, Denmark) (Figure 2A). Images of cells were obtained using a Nikon Diaphot 200 fluorescent microscope equipped with a Nikon Plan 40× objective (Nikon, Tokyo, Japan) and coupled to a black-white video camera. Images of at least 1000 cells/well in different fields of view were analyzed, and the percentage of viable neurons was estimated as the ratio of live cells (non-pyknotic cells with dispersed chromatin) to the total number of neurons.
FIGURE 2 Effect of ARTN and artefin on survival of cerebellar granular neurons (CGNs) induced to undergo apoptosis. CGNs were differentiated for 7 days in the presence of 40 mM KCl before apoptosis was induced by potassium withdrawal. (A) Nuclear morphology of CGNs after Hoechst 33258 staining. […] Scale bar: 100 μm. Cells were grown for 48 h in media, containing 40 mM KCl, apoptotic medium (5 mM KCl) or apoptotic medium supplemented with 50 ng/ml IGF-1 (positive control) (B), serially diluted ARTN (C), or artefin (D). Each experiment was performed in the presence of the three controls (40 mM KCl, 5 mM KCl, and 5 mM KCl plus IGF-1), and the survival effect of the growth factor and the peptide was compared to its own apoptotic control (5 mM KCl). Results from the five experiments are expressed as percentage of 40 mM KCl control set at 100% and presented as mean ± SEM. The anti-apoptotic effect of ARTN and artefin was tested using Student’s paired t-test, where ^∗p < 0.05; ^∗∗p < 0.01; ^∗∗∗p < 0.001; ^∗∗∗∗p < 0.0001.

In experiment [2] the test system is RET. In words: RET phosphorylation assay in PC12-E2 cells. Conditions: PC12-E2, 10 min; ARTN 2.1 nM, artefin 12.64 μM; phosphotyrosine/total RET by immunoblot; control = 100%. In kind it is cell-based. The method, then:
The pheochromocytoma cell line PC12-E2 (gift from Dr. Klaus Seedorf, Hagedorn Research Institute, Gentofte Municipality, Denmark) was propagated in Dulbecco’s modified Eagle’s medium (DMEM) supplemented with 5% (v/v) fetal calf serum (FCS), 10% (v/v) horse serum (HS), 1% (v/v) glutamax, 100 U/ml penicillin, and 100 μg/ml streptomycin. Cells were grown at 37°C in a humidified atmosphere containing 5% CO2.
Phosphorylation of RET was assayed in PC12-E2 cells. Cells were seeded at a density of 7 × 10^4 cells/cm^2 in 6 cm cell culture dishes (Nunc) and grown for 24 h. Cells were then grown in starvation medium (growth media with FCS switched to 1%) for 4 h before being stimulated with recombinant human ARTN (2.1 nM) or artefin (12.64 μM) for 10 min. Non-stimulated cells served as a control. Cell lysates were separated by SDS-polyacrylamide gel electrophoresis (SDS-PAGE) and transferred to an Immobilon-P membrane (Millipore, Billerica, MA, United States). Membranes were stained with mouse anti-phosphotyrosine antibody (BD Transduction Lab, New York City, NY, United States; 1:500) or RET (goat anti-mouse antibody, R&D systems, 1:500), followed by incubation with HRP-conjugated anti-mouse IgG. […] RET phosphorylation was determined as the ratio between phosphorylated and total RET. […]

Setting [3] is: 48 h in apoptotic medium (5 mM KCl).

Bridge positions count the residues as written; N and C are the ends. Ends that are not written are not given here. I, II: the chains in the order shown.

As to “I: RSPHDLSLASLLGAGKK-NH2 / II: RSPHDLSLASLLGAGK / III: RSPHDLSLASLLGAG / IV: RSPHDLSLASLLGAG (amide I:16-IV:C, I:17-II:C, II:16-III:C; C-terminus assumed) [artefin]”, the “neuronal survival in apoptotic medium” value in experiment [1] is “significantly promoted neuronal survival”. Besides, in experiment [1] (setting [3]), the “concentration of maximum neuronal survival” value was determined as 0.156 µM and the “maximal neuroprotective effect / maximum level of neuronal survival” value is listed as 72.95 % of control. Moreover, the “RET phosphorylation compared to unstimulated control” value in experiment [2] is about 500%.

B1: recombinant human Artemin (ARTN) (ligand, UniProt Q5T4W7 108-220, looked up)
chain: AGGPGSRARAAGARGCRLRSQLVPVRALGLGHRSDELVRFRFCSGSCRRARSPHDLSLASLLGAGALRPPPGSRPVSQPCCRPTRYEAVSFMDVNSTWRTVDRLSATACGCLG
notes: Artemin (ARTN), human, UniProt D3DPX9; source: bought: R&D Systems
As for B1, the “neuronal survival in apoptotic medium” value in experiment [1] is reported as “promoted the survival of CGNs in culture in a dose-dependent manner”. In addition, in experiment [1] (setting [3]), the “concentration of maximal neuroprotective effect” value stood at 4 pM and the “maximal neuroprotective effect / maximum level of neuronal survival” value is on record as 68.3 % of control. Further, in experiment [2], the “RET phosphorylation compared to unstimulated control” value is about 600%.
